Source: PubChem BioAssay (NCI)
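Results reflect a 48-hour exposure of cells in 96-well plates to compound at five concentrations. At the GI50, growth is halved. TGI denotes the concentration required for complete inhibition of growth.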

How the values were obtained:
Assay in all cases: inhibition of tumour cell growth, NCI panel, 48 h
RXF-631 renal = system: RXF-631 renal
DMS 114 small cell lung = system: DMS 114 small cell lung
M19-MEL melanoma = system: M19-MEL melanoma
SNB-78 CNS = system: SNB-78 CNS
DMS 273 small cell lung = system: DMS 273 small cell lung

Compound	GI50 (RXF-631 renal) [µM]	TGI (RXF-631 renal) [µM]	GI50 (DMS 114 small cell lung) [µM]	TGI (DMS 114 small cell lung) [µM]	GI50 (M19-MEL melanoma) [µM]	TGI (M19-MEL melanoma) [µM]	GI50 (SNB-78 CNS) [µM]	TGI (SNB-78 CNS) [µM]	GI50 (DMS 273 small cell lung) [µM]	TGI (DMS 273 small cell lung) [µM]
CC(C)(C)C(=O)[CH-]C(=O)C(C)(C)C.CC(C)(C)C(=O)[CH-]C(=O)C(C)(C)C.CN(C)c1ccc([O-])cc1.CN(C)c1ccc([O-])cc1.[Ti+4]	> 100	> 100	> 100	> 100	79.2	> 100	> 100	> 100	> 100	> 100
O=c1oc2ccccc2[n+]([O-])c1-c1ccccc1		> 100		> 100		> 100		> 100		> 100
CN(C)C(=S)/N=c1\ssc(=S)n1Cc1ccncc1		38.4		7.77		27.8		> 100		76.3
C=CC(OCC)(OCC)OCC		> 100		31.2		> 100		> 100		37.9
COc1ccc(C(=O)NCCN(C)C)c2nc3ccccc3nc12		> 100		12.5		9.9		38.4		> 100
O=[N+]([O-])c1ccc(Sc2c3ccccc3nc3cc(Cl)ccc23)cc1	> 100	> 100	> 100	> 100	> 100	> 100				> 1
COC(=O)C1(O)CC(=O)CCC1c1ccc(OC)cc1 (centres undefined)		> 100		> 100				> 100		> 100
COc1cc2c(cc1OC)C(C(=O)c1cccc(OC)c1OC)C(=O)N(C)CC2 (centres undefined)		> 100		> 100		> 100				> 100
Nc1ncnc2c1ncn2CC(O)CO (centres undefined)		> 100		> 100		> 100		> 100		> 100
CC(=O)OCC1OC(N2C(=O)C(=O)c3ccccc32)C(OC(C)=O)C(OC(C)=O)C1OC(C)=O (centres undefined)		> 100		> 100		> 100				> 100
CCOC(=O)c1cc2c3c(c(O)c(OC)c2s1)N(C(=O)c1cc2c4c(c(O)c(OC)c2s1)N(C(C)=O)CC4)CC3		> 100		> 100		> 100		> 100		> 100
Cc1nc(C(N)=S)sc1C(=O)/C=C/c1c(O)ccc2ccccc12		> 100		98.1		19		> 100		> 100
CCNC(=O)COc1ccc(Cl)cc1Cl		> 100		> 100		> 100		> 100		> 100
